Reference: US6852673B2, “Herbicidal pyridine compounds” (BASF Aktiengesellschaft, priority 1998, dated 2005)

Columns and labels:
Type in all cases: in vivo
Hordeum vulgare (HORVW) [1] = assay: Pre-emergence herbicidal evaluation, winter barley
Outline: (§1)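 Visual injury ratings are taken 2 to 4 weeks after treatment. Before that, seeds are planted in soil-filled pots and sprayed at once with the compound in aqueous acetone, dosed at about 0.0125 to 0.4 kg per hectare, and the pots are grown on greenhouse benches.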

Hordeum vulgare (HORVW) [2] = assay: Post-emergence herbicidal evaluation, winter barley; settings: rated 2 to 4 weeks after treatment
Outline: (§2)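 Plants rated 0–9 (0 = growth as untreated control, 9 = death) 2 to 4 weeks after greenhouse post-emergence treatment. Formulations were water-diluted acetone solutions sprayed at doses equivalent to about 0.03 to 0.4 kg test compound per hectare per pot.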

Galium aparine (GALAP) = assay: Pre-emergence herbicidal evaluation, cleaver
Outline: as §1

Zea mays (ZEAMX) [3] = assay: Post-emergence herbicidal evaluation, maize; settings: rated 2 to 4 weeks after treatment
Outline: as §2

Glycine max (GLXMA) [4] = assay: Post-emergence herbicidal evaluation, soyabeans; settings: rated 2 to 4 weeks after treatment
Outline: as §2

Oryza sativum (ORYSA) [5] = assay: Post-emergence herbicidal evaluation, rice; settings: rated 2 to 4 weeks after treatment
Outline: as §2

Setaria viridis (SETVI) = assay: Pre-emergence herbicidal evaluation, green foxtail
Outline: as §1

[6] = system: Digitaria sanguinalis (DIGSA); assay: Post-emergence herbicidal evaluation, large crabgrass; settings: rated 2 to 4 weeks after treatment
Outline: as §2

[7] = system: Ambrosia artemiisifolia (AMBEL); assay: Post-emergence herbicidal evaluation, ragweed; settings: rated 2 to 4 weeks after treatment
Outline: as §2

Stellaria media (STEME) = assay: Pre-emergence herbicidal evaluation, chickweed
Outline: as §1

Solanum nigrum (SOLNI) [8] = assay: Post-emergence herbicidal evaluation, black nightshade; settings: rated 2 to 4 weeks after treatment
Outline: as §2

[9] = system: Matricaria inodora (MATIN); assay: Post-emergence herbicidal evaluation, mayweed; settings: rated 2 to 4 weeks after treatment
Outline: as §2

[10] = system: Ipomoea hederacea (IPOHE); assay: Post-emergence herbicidal evaluation, morning glory; settings: rated 2 to 4 weeks after treatment
Outline: as §2

[11] = system: Alopecurus myosuroides (ALOMY); assay: Pre-emergence herbicidal evaluation, black grass
Outline: as §1

[12] = system: Alopecurus myosuroides (ALOMY); assay: Post-emergence herbicidal evaluation, black grass; settings: rated 2 to 4 weeks after treatment
Outline: as §2

[13] = system: Abutilon theophrasti (ABUTH); assay: Post-emergence herbicidal evaluation, velvetleaf; settings: rated 2 to 4 weeks after treatment
Outline: as §2

Solanum nigrum (SOLNI) [14] = assay: Pre-emergence herbicidal evaluation, black nightshade
Outline: as §1

Zea mays (ZEAMX) [15] = assay: Pre-emergence herbicidal evaluation, maize
Outline: as §1

Lamium purpureum (LAMPU) [16] = assay: Post-emergence herbicidal evaluation, purple deadnettle; settings: rated 2 to 4 weeks after treatment
Outline: as §2

Glycine max (GLXMA) [17] = assay: Pre-emergence herbicidal evaluation, soyabeans
Outline: as §1

[18] = system: Echinochloa grus galli (ECHCG); assay: Post-emergence herbicidal evaluation, barnyard grass; settings: rated 2 to 4 weeks after treatment
Outline: as §2

Lamium purpureum (LAMPU) [19] = assay: Pre-emergence herbicidal evaluation, purple deadnettle
Outline: as §1

Oryza sativum (ORYSA) [20] = assay: Pre-emergence herbicidal evaluation, rice
Outline: as §1

[21] = system: Triticum aestivum (TRZAW); assay: Post-emergence herbicidal evaluation, winter wheat; settings: rated 2 to 4 weeks after treatment
Outline: as §2

[22] = system: Echinochloa grus galli (ECHCG); assay: Pre-emergence herbicidal evaluation, barnyard grass
Outline: as §1

[23] = system: Triticum aestivum (TRZAW); assay: Pre-emergence herbicidal evaluation, winter wheat
Outline: as §1

SMILES: Cc1cc(OC=CCC(F)(F)F)nc(Oc2cc(C(F)(F)F)nn2C)c1 [Example 2, 2-(1-Methyl-3-trifluoromethylpyrazol-5-yloxy)-4-methyl-6-(4,4,4-trifluorobut-1-enyloxy)pyridine]
- HORVW rating (Hordeum vulgare (HORVW) [1]; dose 0.013 kg/ha): 0 (0 - No effect)
- HORVW rating (Hordeum vulgare (HORVW) [1]; dose 0.025 kg/ha): 0 (0 - No effect)
- HORVW rating (Hordeum vulgare (HORVW) [1]; dose 0.1 kg/ha): 3 (3 - Moderate effect)
- HORVW rating (Hordeum vulgare (HORVW) [1]; dose 0.4 kg/ha): 5 (5 - Definite injury)
- HORVW rating (Hordeum vulgare (HORVW) [2]; dose 0.03 kg/ha): 3 (3 - Moderate effect)
- HORVW rating (Hordeum vulgare (HORVW) [2]; dose 0.1 kg/ha): 3 (3 - Moderate effect)
- HORVW rating (Hordeum vulgare (HORVW) [2]; dose 0.4 kg/ha): 3 (3 - Moderate effect)
- GALAP rating (Galium aparine (GALAP); dose 0.013 kg/ha): 0 (0 - No effect)
- GALAP rating (Galium aparine (GALAP); dose 0.025 kg/ha): 0 (0 - No effect)
- GALAP rating (Galium aparine (GALAP); dose 0.1 kg/ha): 2 (2 - Slight effect)
- GALAP rating (Galium aparine (GALAP); dose 0.4 kg/ha): 9 (9 - Complete kill)
- ZEAMX rating (Zea mays (ZEAMX) [3]; dose 0.03 kg/ha): 2 (2 - Slight effect)
- ZEAMX rating (Zea mays (ZEAMX) [3]; dose 0.1 kg/ha): 4 (4 - Injury)
- ZEAMX rating (Zea mays (ZEAMX) [3]; dose 0.4 kg/ha): 5 (5 - Definite injury)
- GLXMA rating (Glycine max (GLXMA) [4]; dose 0.03 kg/ha): 7 (7 - Good herbicidal effect)
- GLXMA rating (Glycine max (GLXMA) [4]; dose 0.1 kg/ha): 8 (8 - Approaching complete kill)
- GLXMA rating (Glycine max (GLXMA) [4]; dose 0.4 kg/ha): 8 (8 - Approaching complete kill)
- ORYSA rating (Oryza sativum (ORYSA) [5]; dose 0.03 kg/ha): 2 (2 - Slight effect)
- ORYSA rating (Oryza sativum (ORYSA) [5]; dose 0.1 kg/ha): 3 (3 - Moderate effect)
- ORYSA rating (Oryza sativum (ORYSA) [5]; dose 0.4 kg/ha): 3 (3 - Moderate effect)
- SETVI rating (Setaria viridis (SETVI); dose 0.013 kg/ha): 5 (5 - Definite injury)
- SETVI rating (Setaria viridis (SETVI); dose 0.025 kg/ha): 6 (6 - Herbicidal effect)
- SETVI rating (Setaria viridis (SETVI); dose 0.1 kg/ha): 9 (9 - Complete kill)
- SETVI rating (Setaria viridis (SETVI); dose 0.4 kg/ha): 9 (9 - Complete kill)
- DIGSA rating ([6]; dose 0.03 kg/ha): 7 (7 - Good herbicidal effect)
- DIGSA rating ([6]; dose 0.1 kg/ha): 9 (9 - Complete kill)
- DIGSA rating ([6]; dose 0.4 kg/ha): 9 (9 - Complete kill)
- AMBEL rating ([7]; dose 0.03 kg/ha): 5 (5 - Definite injury)
- AMBEL rating ([7]; dose 0.1 kg/ha): 6 (6 - Herbicidal effect)
- AMBEL rating ([7]; dose 0.4 kg/ha): 8 (8 - Approaching complete kill)
- STEME rating (Stellaria media (STEME); dose 0.013 kg/ha): 0 (0 - No effect)
- STEME rating (Stellaria media (STEME); dose 0.025 kg/ha): 0 (0 - No effect)
- STEME rating (Stellaria media (STEME); dose 0.1 kg/ha): 9 (9 - Complete kill)
- STEME rating (Stellaria media (STEME); dose 0.4 kg/ha): 9 (9 - Complete kill)
- SOLNI rating (Solanum nigrum (SOLNI) [8]; dose 0.03 kg/ha): 7 (7 - Good herbicidal effect)
- SOLNI rating (Solanum nigrum (SOLNI) [8]; dose 0.1 kg/ha): 8 (8 - Approaching complete kill)
- SOLNI rating (Solanum nigrum (SOLNI) [8]; dose 0.4 kg/ha): 8 (8 - Approaching complete kill)
- MATIN rating ([9]; dose 0.03 kg/ha): 6 (6 - Herbicidal effect)
- MATIN rating ([9]; dose 0.1 kg/ha): 8 (8 - Approaching complete kill)
- MATIN rating ([9]; dose 0.4 kg/ha): 9 (9 - Complete kill)
- IPOHE rating ([10]; dose 0.03 kg/ha): 8 (8 - Approaching complete kill)
- IPOHE rating ([10]; dose 0.1 kg/ha): 9 (9 - Complete kill)
- IPOHE rating ([10]; dose 0.4 kg/ha): 9 (9 - Complete kill)
- ALOMY rating ([11]; dose 0.013 kg/ha): 1 (1 - Trace effect)
- ALOMY rating ([11]; dose 0.025 kg/ha): 1 (1 - Trace effect)
- ALOMY rating ([11]; dose 0.1 kg/ha): 7 (7 - Good herbicidal effect)
- ALOMY rating ([11]; dose 0.4 kg/ha): 9 (9 - Complete kill)
- ALOMY rating ([12]; dose 0.03 kg/ha): 2 (2 - Slight effect)
- ALOMY rating ([12]; dose 0.1 kg/ha): 5 (5 - Definite injury)
- ALOMY rating ([12]; dose 0.4 kg/ha): 8 (8 - Approaching complete kill)
- ABUTH rating ([13]; dose 0.03 kg/ha): 8 (8 - Approaching complete kill)
- ABUTH rating ([13]; dose 0.1 kg/ha): 8 (8 - Approaching complete kill)
- ABUTH rating ([13]; dose 0.4 kg/ha): 9 (9 - Complete kill)
- SOLNI rating (Solanum nigrum (SOLNI) [14]; dose 0.013 kg/ha): 0 (0 - No effect)
- SOLNI rating (Solanum nigrum (SOLNI) [14]; dose 0.025 kg/ha): 1 (1 - Trace effect)
- SOLNI rating (Solanum nigrum (SOLNI) [14]; dose 0.1 kg/ha): 8 (8 - Approaching complete kill)
- SOLNI rating (Solanum nigrum (SOLNI) [14]; dose 0.4 kg/ha): 9 (9 - Complete kill)
- ZEAMX rating (Zea mays (ZEAMX) [15]; dose 0.013 kg/ha): 0 (0 - No effect)
- ZEAMX rating (Zea mays (ZEAMX) [15]; dose 0.025 kg/ha): 1 (1 - Trace effect)
- ZEAMX rating (Zea mays (ZEAMX) [15]; dose 0.1 kg/ha): 2 (2 - Slight effect)
- ZEAMX rating (Zea mays (ZEAMX) [15]; dose 0.4 kg/ha): 4 (4 - Injury)
- LAMPU rating (Lamium purpureum (LAMPU) [16]; dose 0.03 kg/ha): 8 (8 - Approaching complete kill)
- LAMPU rating (Lamium purpureum (LAMPU) [16]; dose 0.1 kg/ha): 8 (8 - Approaching complete kill)
- LAMPU rating (Lamium purpureum (LAMPU) [16]; dose 0.4 kg/ha): 8 (8 - Approaching complete kill)
- GLXMA rating (Glycine max (GLXMA) [17]; dose 0.013 kg/ha): 0 (0 - No effect)
- GLXMA rating (Glycine max (GLXMA) [17]; dose 0.025 kg/ha): 1 (1 - Trace effect)
- GLXMA rating (Glycine max (GLXMA) [17]; dose 0.4 kg/ha): 4 (4 - Injury)
- ECHCG rating ([18]; dose 0.03 kg/ha): 2 (2 - Slight effect)
- ECHCG rating ([18]; dose 0.1 kg/ha): 5 (5 - Definite injury)
- ECHCG rating ([18]; dose 0.4 kg/ha): 7 (7 - Good herbicidal effect)
- LAMPU rating (Lamium purpureum (LAMPU) [19]; dose 0.013 kg/ha): 8 (8 - Approaching complete kill)
- LAMPU rating (Lamium purpureum (LAMPU) [19]; dose 0.025 kg/ha): 8 (8 - Approaching complete kill)
- LAMPU rating (Lamium purpureum (LAMPU) [19]; dose 0.1 kg/ha): 9 (9 - Complete kill)
- LAMPU rating (Lamium purpureum (LAMPU) [19]; dose 0.4 kg/ha): 9 (9 - Complete kill)
- ORYSA rating (Oryza sativum (ORYSA) [20]; dose 0.013 kg/ha): 0 (0 - No effect)
- ORYSA rating (Oryza sativum (ORYSA) [20]; dose 0.025 kg/ha): 1 (1 - Trace effect)
- ORYSA rating (Oryza sativum (ORYSA) [20]; dose 0.1 kg/ha): 2 (2 - Slight effect)
- ORYSA rating (Oryza sativum (ORYSA) [20]; dose 0.4 kg/ha): 3 (3 - Moderate effect)
- TRZAW rating ([21]; dose 0.03 kg/ha): 2 (2 - Slight effect)
- TRZAW rating ([21]; dose 0.1 kg/ha): 3 (3 - Moderate effect)
- TRZAW rating ([21]; dose 0.4 kg/ha): 3 (3 - Moderate effect)
- ECHCG rating ([22]; dose 0.013 kg/ha): 0 (0 - No effect)
- ECHCG rating ([22]; dose 0.025 kg/ha): 2 (2 - Slight effect)
- ECHCG rating ([22]; dose 0.1 kg/ha): 8 (8 - Approaching complete kill)
- ECHCG rating ([22]; dose 0.4 kg/ha): 9 (9 - Complete kill)
- TRZAW rating ([23]; dose 0.013 kg/ha): 0 (0 - No effect)
- TRZAW rating ([23]; dose 0.025 kg/ha): 0 (0 - No effect)
- TRZAW rating ([23]; dose 0.1 kg/ha): 1 (1 - Trace effect)
- TRZAW rating ([23]; dose 0.4 kg/ha): 3 (3 - Moderate effect)
